Source: US20240067693A1, “POLYPEPTIDES AND USES THEREOF” (MEDIMMUNE LIMITED, priority 2020, published 2024)
Numbered stars: 1 amine (or outer) side, 2 acyl side, 3 side chain; on linkers, the order of the positions; unused ones are H or OH. Bridge positions count the residues as written; N and C are the ends. Square brackets hold non-standard residues; d marks the D form. Side chains are listed from the residue outwards. Peptide text beside a SMILES is read from it. * marks the point of attachment. C18 diacid = O=C(O)CCCCCCCCCCCCCCCCC(=O)*; γGlu = O=C(O)[C@H](CCC(=O)[*:2])N[*:1]; αMeF = C[C@](N)(Cc1ccccc1)C(=O)O

Columns and labels:
[1] = Pharmacokinetic determination via IV and SC administration in Sprague Dawley rats; conditions: male, rat, plasma, 20 nmol/kg
Protocol: PK studies were performed to determine the half-life (T1/2) of test peptides. T1/2 describes the time taken for the maximum plasma concentration (Cmax) of a test substance to halve its steady-state concentration when in circulation.
Male SD rats were purchased from Si Bei Fu Laboratory Animal Technology Co. Ltd (China). The animals were 6-8 weeks old with body weights of 200-300 g on the dosing date. The animals were housed in a 12-hour light/12-hour dark cycle environment and were fasted overnight before dosing. The body weight of the animals were recorded before dosing, 24 h and 48 h post dosing . Animals had free access to food and drinks, and the food consumption was quantified every day.
Test articles were administered at 20 nmol/kg. Blood samples were collected from each animal via Jugular vein.
The blood samples were transferred into eppendorf low binding tube containing K2 EDTA. Above 0.150 mL blood were collected at each time point. Blood samples were centrifuged at 4,000 g for 5 minutes at 4° C. to obtain plasma. The plasma samples were stored frozen at −75±15° C. until analysis.
Concentrations of the test articles in the plasma samples were analyzed using a LC-MS/MS method. Data acquisition was performed by LabSolution version 5.89 software (Shimadzu, Kyoto, Japan). Data statistics were performed using Excel 97-2003 software. The pharmacokinetic parameters of test articles were calculated using a non-compartmental approach with Phoenix™ VVinNonlin® 6.1.
The following pharmacokinetic parameters were calculated, whenever possible from the plasma concentration versus time data: • IV administration: T1/2, C0, AUClast, AUCinf, MRTinf, Cl, Vss, Number of Points for Regression. • SC administration: Tmax, Cmax, AUClast, AUCinf, MRTinf, F, Number of Points for Regression.

[2] = target: T1, rat amylin receptor (calcitonin receptor co-expressed with receptor activity modifying protein, RAMP3) (Rat AMYR3) (Rattus norvegicus, UniProt P32214+Q9JJ73); test: cAMP production in HEK cells with stable recombinant expression of rat amylin receptor (Rat AMYR3); type: cell-based; conditions: assay buffer with 0.1% BSA
T1 construct: expressed in transfected cells
T1 sequence (P32214 25-516): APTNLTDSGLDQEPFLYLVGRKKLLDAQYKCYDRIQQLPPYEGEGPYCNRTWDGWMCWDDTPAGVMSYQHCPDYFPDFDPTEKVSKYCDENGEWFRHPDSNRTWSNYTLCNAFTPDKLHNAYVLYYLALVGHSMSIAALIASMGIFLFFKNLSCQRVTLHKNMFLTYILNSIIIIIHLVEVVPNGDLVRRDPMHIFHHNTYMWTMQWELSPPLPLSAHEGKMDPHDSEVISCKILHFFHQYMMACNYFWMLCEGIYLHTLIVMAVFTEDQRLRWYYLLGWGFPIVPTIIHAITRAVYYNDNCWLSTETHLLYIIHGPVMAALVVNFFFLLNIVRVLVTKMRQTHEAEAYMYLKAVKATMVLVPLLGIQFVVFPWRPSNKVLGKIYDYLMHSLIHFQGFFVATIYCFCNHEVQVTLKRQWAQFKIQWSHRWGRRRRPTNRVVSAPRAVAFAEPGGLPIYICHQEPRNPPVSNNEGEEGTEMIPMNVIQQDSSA
T1 sequence (Q9JJ73 23-147 partner): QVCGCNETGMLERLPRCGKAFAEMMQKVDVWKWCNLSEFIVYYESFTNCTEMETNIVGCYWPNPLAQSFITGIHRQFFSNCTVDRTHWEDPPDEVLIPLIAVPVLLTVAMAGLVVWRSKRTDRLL
Method in brief: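 Receptor-expressing cells (human receptors in 1321N1, rat receptors in HEK) incubated 30 min at room temperature with peptide in HBSS/HEPES pH 7.4, 0.1% BSA, 0.5 mM IBMX. cAMP read by HTRF; EC50 from 4-parameter fit as % of maximal amylin or calcitonin response.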

[3] = test system: lean rats; test: Rat acute food intake study; type: in vivo; conditions: lean male Sprague Dawley rats, 20 nmol/kg subcutaneously
Method in brief: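 Male Sprague Dawley rats (n=7/group), fasted 6 h, received 20 nmol/kg test compound or 60 nmol/kg pramlintide subcutaneously 30 min before food return at dark onset. Food intake recorded automatically in home cages over 3 days, binned hourly and analysed as cumulative dark-period intake; body weight taken daily.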

CC[C@H](C)[C@H](NC(=O)[C@@H]1CCCN1C(=O)CNC(=O)[C@](C)(Cc1ccccc1)NC(=O)[C@H](CC(N)=O)NC(=O)[C@H](CC(N)=O)NC(=O)[C@H](CO)NC(=O)[C@H](CO)NC(=O)[C@H](Cc1c[nH]cn1)NC(=O)[C@H](CCCNC(=N)N)NC(=O)[C@H](CC(C)C)NC(=O)[C@H](Cc1ccccc1)NC(=O)[C@H](CC(N)=O)NC(=O)[C@H](C)NC(=O)[C@H](CC(C)C)NC(=O)[C@H](CCCNC(=N)N)NC(=O)[C@H](CCC(N)=O)NC(=O)[C@@H](NC(=O)[C@H](C)NC(=O)[C@@H]1CSSC[C@H](NC(=O)[C@@H](N)CCCCNC(=O)CC[C@H](NC(=O)CC[C@H](NC(=O)CCCCCCCCCCCCCCCCC(=O)O)C(=O)O)C(=O)O)C(=O)N[C@@H](CC(N)=O)C(=O)N[C@@H]([C@@H](C)O)C(=O)N[C@@H](C)C(=O)N[C@@H]([C@@H](C)O)C(=O)N1)[C@@H](C)O)C(=O)N[C@@H](CC(C)C)C(=O)N1CCC[C@H]1C(=O)N1CCC[C@H]1C(=O)N[C@H](C(=O)N[C@@H](CCC(=O)O)C(=O)N[C@H](C(=O)NCC(=O)N[C@@H](CO)C(=O)N[C@@H](CC(N)=O)C(=O)N[C@H](C(=O)N[C@@H](Cc1ccc(O)cc1)C(N)=O)[C@@H](C)O)C(C)C)[C@@H](C)O [Peptide 18, K(γE-γE-C18diacid)[CNTATC]ATQRLANFLRHSSNN(αMePhe)GPILPPTEVGSNTY-amide] (H-K([γGlu-γGlu-C18 diacid])CNTATCATQRLANFLRHSSNN[αMeF]GPILPPTEVGSNTY-NH2; disulfide 2-7; N-terminus assumed)
half-life ([1]; iv): 12 h | half-life ([1]; sc): 13.6 h | EC50 [2]: 16.5 pM | Cummulative food intake (% vehicle treated intake) At 12 h ([3]; at 12 h): 45.8 % vehicle treated intake | Cummulative food intake (% vehicle treated intake) At 24 h ([3]; at 24 h): 46.9 % vehicle treated intake | Cummulative food intake (% vehicle treated intake) At 48 h ([3]; at 48 h): 68.8 % vehicle treated intake
